The results in this text go back to patent US7501430B2 (ArQule, Inc., priority 2006, dated 2009).

Usually IC50 stands for the concentration needed to halve the response being measured. For orientation: inhibition means the relative decrease from the control value, in per cent.

Structures are written as SMILES. A value given as a limit tells only on which side of the number the result lay.

T1 sequence (P15056 whole entry V600E): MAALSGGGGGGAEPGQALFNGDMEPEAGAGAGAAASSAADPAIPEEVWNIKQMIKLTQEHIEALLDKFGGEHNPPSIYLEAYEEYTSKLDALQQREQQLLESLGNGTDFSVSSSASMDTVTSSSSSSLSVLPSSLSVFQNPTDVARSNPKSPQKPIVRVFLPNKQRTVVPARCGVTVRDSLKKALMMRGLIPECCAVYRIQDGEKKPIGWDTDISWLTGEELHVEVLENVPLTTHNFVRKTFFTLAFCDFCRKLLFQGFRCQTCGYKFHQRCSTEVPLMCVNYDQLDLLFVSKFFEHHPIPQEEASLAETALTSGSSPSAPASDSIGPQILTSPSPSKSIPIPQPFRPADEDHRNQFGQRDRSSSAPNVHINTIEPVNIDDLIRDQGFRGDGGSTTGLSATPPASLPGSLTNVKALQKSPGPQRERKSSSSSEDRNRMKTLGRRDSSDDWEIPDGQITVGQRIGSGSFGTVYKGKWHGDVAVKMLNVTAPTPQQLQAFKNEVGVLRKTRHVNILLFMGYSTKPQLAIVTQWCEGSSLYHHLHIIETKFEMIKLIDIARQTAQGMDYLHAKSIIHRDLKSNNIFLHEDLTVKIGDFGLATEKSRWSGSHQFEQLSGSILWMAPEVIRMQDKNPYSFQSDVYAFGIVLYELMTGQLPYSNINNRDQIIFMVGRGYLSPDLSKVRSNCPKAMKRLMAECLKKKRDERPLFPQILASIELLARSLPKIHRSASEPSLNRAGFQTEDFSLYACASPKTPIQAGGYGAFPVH

One experiment addresses T1, mutant B-RAF (Homo sapiens, UniProt P15056, V600E).
T1 construct: purchased Upstate (Charlottesville, Va.)
In words: RAF biochemical assay (MEK-1 phosphorylation, anti-phospho MEK1/2 detection).
Details: not given
In outline: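 Detection is by ELISA: after a 30 min room-temperature reaction, plate-captured GST-MEK-1 is probed with anti-phospho MEK1/2, then an AP-tagged secondary antibody with fluorescent Attophos read-out.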
Compound `CC(C)c1ccc(S(=O)(=O)N2CCC[C@@H](Nc3nccc(-c4c(-c5ccc(F)cc5)nc5occn45)n3)C2)cc1` [Example 48, 4-[6-(4-fluorophenyl)imi-dazo[2,1-b][1,3]oxazol-5-yl]-N-{(3R)-1-[(4-isopropyl-phenyl)sulfonyl]piperidin-3-yl}pyrimidin-2-amine] registered an IC50 of 3020 nM.

Staying with this experiment, now noted: @ 10 uM; read-out: Mutant B-RAF % inhibition.
Take `N#Cc1cccc(-c2nc3sccn3c2-c2ccnc(N[C@@H]3CCN(S(=O)(=O)c4ccc(Cl)cc4)C3)n2)c1` [Example 285, 3-{5-[2-({(3R)-1-[(4-chlorophenyl)sulfonyl]pyrrolidin-3-yl}amino)pyrimidin-4-yl]imidazo[2,1-b][1,3]thiazol-6-yl}benzonitrile]: the inhibition at 10 µM stood at 35%.
On the same count and under the same terms, the same measure for `Cc1nc(C)c(S(=O)(=O)N2CCC[C@@H](Nc3nccc(-c4c(-c5ccc(F)cc5)nc5occn45)n3)C2)s1` [Example 65, N-{(3R)-1-[(2,4-dimethyl-1,3-thiazol-5-yl)sulfonyl]piper-idin-3-yl}-4-[6-(4-fluorophenyl)imidazo[2,1-b][1,3]oxazol-5-yl]pyrimidin-2-amine]: 42%.
On the same count and under the same terms, the same measure for `O=S(=O)(c1c(F)cccc1F)N1CCC(Nc2nccc(-c3c(-c4ccc(F)cc4)nc4occn34)n2)CC1` [Example 236, N-{1-[(2,6-difluorophenyl)sulfonyl]piperidin-4-yl}-4-[6-(4-fluorophenyl)imidazo[2,1-b][1,3]oxazol-5-yl]pyrimidin-2-amine]: 30%; for `c1ccc2cc(-c3nc4sccn4c3-c3ccnc(NC4CCNCC4)n3)ccc2c1` [Example 244, 4-[6-(2-naphthyl)imidazo[2,1-b][1,3]thiazol-5-yl]-N-piperidin-4-ylpyrimidin-2-amine]: 47%.
On to `O=S(=O)(c1cc(Cl)cc(Cl)c1)N1CCC[C@@H](Nc2nccc(-c3c(-c4ccc(F)cc4)nc4occn34)n2)C1` [Example 51, N-{(3R)-1-[(3,5-dichlorophenyl)sulfonyl]pip-eridin-3-yl}-4-[6-(4-fluorophenyl)imidazo[2,1-b][1,3]oxazol-5-yl]pyrimidin-2-amine], for which the inhibition at 10 µM was 25%.
For the compound `CC(=O)N1CCC(Nc2nccc(-c3c(-c4ccc(F)cc4Cl)nc4occn34)n2)CC1` [Example 305, N-(1-acetylpiperidin-4-yl)-4-[6-(2-chloro-4-fluorophenyl)imidazo[2,1-b][1,3]oxazol-5-yl]pyrimidin-2-amine], the inhibition at 10 µM amounted to 47%.
On the same count and under the same terms, then `N#Cc1cccc(-c2nc3sccn3c2-c2ccnc(NC3CCNCC3)n2)c1` [Example 271, 3-{5-[2-(piperidin-4-ylamino)pyrimidin-4-yl]imidazo[2,1-b][1,3]thiazol-6-yl}benzonitrile], with 58%; and `COc1ccc(NC(=O)N2CCC[C@@H](Nc3nccc(-c4c(-c5ccc(F)cc5)nc5occn45)n3)C2)c(OC)c1` [Example 69, (3R)-N-(2,4-dimethoxy-phenyl)-3-({4-[6-(4-fluorophenyl)imidazo[2,1-b][1,3]oxazol-5-yl]pyrimidin-2-yl}amino)piperidine-1-carboxamide], with 42%; and `Cc1cn2c(-c3ccnc(N[C@@H]4CCCN(C(=O)NCc5ccco5)C4)n3)c(-c3ccc(F)cc3)nc2s1` [Example 93, (3R)-3-({4-[6-(4-fluoro-phenyl)-2-methylimidazo[2,1-b][1,3]thiazol-5-yl]pyrimidin-2-yl}amino)-N-(2-furylmethyl)piperidine-1-carboxamide], with 61%.
On the same count and under the same terms, the same measure for `COc1cccc(-c2nc3sccn3c2-c2ccnc(N[C@@H]3CCN(S(=O)(=O)c4ccc(Cl)cc4)C3)n2)c1` [Example 280, N-{(3R)-1-[(4-chlorophenyl)sulfonyl]pyrro-lidin-3-yl}-4-[6-(3-methoxyphenyl)imidazo[2,1-b][1,3]thiazol-5-yl]pyrimidin-2-amine]: 37%; for `Cc1ccnc(SCC(=O)N2CCC(Nc3nccc(-c4c(-c5ccc(F)cc5)nc5occn45)n3)CC2)n1` [Example 215, 4-[6-(4-fluorophenyl)imidazo[2,1-b][1,3]oxazol-5-yl]-N-(1-{[(4-methylpyrimidin-2-yl)thio]acetyl}piperidin-4-yl)pyrimidin-2-amine]: 40%.

The same experiment, now with this note: read-out: Mutant B-RAF % inhibition.
As for `O=C(NCC1CCCCC1)N1CCC[C@@H](Nc2nccc(-c3c(-c4ccc(F)cc4)nc4occn34)n2)C1` [Example 68, (3R)-N-(cyclohexylmethyl)-3-({4-[6-(4-fluorophenyl)imi-dazo[2,1-b][1,3]oxazol-5-yl]pyrimidin-2-yl}amino)piperidine-1-carboxamide], the inhibition at 10 µM was 42%.

Still in this experiment, the particulars now being: read-out: Mutant B-RAF IC50.
As to `COc1cccc(-c2nc3sccn3c2-c2ccnc(NC3CCN(C(=O)Cc4ccc(N(C)C)cc4)CC3)n2)c1` [Example 245, N-(1-{[4-(dimethylamino)phenyl]acetyl}piperidin-4-yl)-4-[6-(3-methoxyphenyl)imidazo[2,1-b][1,3]thiazol-5-yl]pyrimidin-2-amine], the IC50 worked out at 2460 nM.
The same measure, in the same setting: then `COc1cccc(-c2nc3occn3c2-c2ccnc(NC3CCN(S(=O)(=O)C4CC4)CC3)n2)c1` [Example 338, N-[1-(cyclopropylsulfonyl)piperidin-4-yl]-4-[6-(3-methoxyphenyl)imidazo[2,1-b][1,3]oxazol-5-yl]pyrimidin-2-amine], with 6990 nM.
Still for that read-out and setting: the same measure for `CN(C)c1ccc(C(=O)N2CCC[C@@H](Nc3nccc(-c4c(-c5ccc(F)cc5)nc5occn45)n3)C2)cc1` [Example 39, N-{(3R)-1-[4-(dimethyl-amino)benzoyl]piperidin-3-yl}-4-[6-(4-fluorophenyl)imidazo[2,1-b][1,3]oxazol-5-yl]pyrimidin-2-amine]: 477 nM.
The same measure, in the same setting: the same measure for `O=S(=O)(c1ccc(Oc2ccccc2)cc1)N1CCC(Nc2nccc(-c3c(-c4ccc(F)cc4)nc4occn34)n2)CC1` [Example 238, 4-[6-(4-fluorophenyl)imidazo[2,1-b][1,3]oxazol-5-yl]-N-{1-[(4-phenoxyphenyl)sulfonyl]piper-idin-4-yl}pyrimidin-2-amine]: greater than 10000 nM; for `O=C(NCCc1ccc(F)cc1)N1CCC(Nc2nccc(-c3c(-c4ccc(F)cc4)nc4occn34)n2)CC1` [Example 184, N-[2-(4-fluorophenyl)ethyl]-4-({4-[6-(4-fluorophenyl)imidazo[2,1-b][1,3]oxazol-5-yl]pyrimidin-2-yl}amino)piperidine-1-carboxamide]: 1280 nM; for `O=C(O)c1ccc(S(=O)(=O)N2CC[C@@H](Nc3nccc(-c4c(-c5cccc(O)c5)nc5sccn45)n3)C2)cc1` [Example 282, 4-{[(3R)-3-({4-[6-(3-hydroxyphenyl)imidazo[2,1-b][1,3]thiazol-5-yl]pyrimidin-2-yl}amino)pyrrolidin-1-yl]sulfonyl}benzoic acid]: 522 nM.
As to `O=S(=O)(c1ccc(F)cc1)N1CCC(Nc2nccc(-c3c(-c4ccc(F)cc4)nc4occn34)n2)CC1` [Example 157, 4-[6-(4-fluorophenyl)imidazo[2,1-b][1,3]oxazol-5-yl]-N-{1-[(4-fluorophenyl)sulfonyl]piperidin-4-yl}pyrimidin-2-amine], the half-maximal inhibitory concentration (IC50) is 675 nM.
Still for that read-out and setting: the same measure for `CCNC(=O)N1CCC(Nc2nccc(-c3c(-c4ccc(F)cc4)nc4sc(C)cn34)n2)CC1` [Example 220, N-ethyl-4-({4-[6-(4-fluorophenyl)-2-methylimidazo[2,1-b][1,3]thiazol-5-yl]pyrimidin-2-yl}amino)piperidine-1-carboxamide]: 428 nM; for `O=C(O)c1cccc(-c2nc3sccn3c2-c2ccnc(N[C@@H]3CCCN(S(=O)(=O)c4ccc(Cl)cc4)C3)n2)c1` [Example 382, 3-{5-[2-({(3R)-1-[(4-chlorophenyl)sulfonyl]piperidin-3-yl}amino)pyrimidin-4-yl]imidazo[2,1-b][1,3]thiazol-6-yl}benzoic acid]: 1190 nM; for `NC(=O)N1CCC(Nc2nccc(-c3c(-c4ccc(F)cc4)nc4occn34)n2)CC1` [Example 256, 4-({4-[6-(4-fluorophenyl)imidazo[2,1-b][1,3]oxazol-5-yl]pyrimidin-2-yl}amino)piperidine-1-carboxamide]: greater than 1000 nM.
